Test results as given in article PMC10961402, “Safety, tolerability, pharmacokinetics and pharmacokinetic-pharmacodynamic modeling of cetagliptin in patients with type 2 diabetes mellitus” (Frontiers in Endocrinology, 2024).

How the values were obtained:
[1] = in vivo
Source text: A population PK/PD (PopPK/PD) model was developed to describe the relationship between cetagliptin and DPP-4 inhibition. A sequential two-step analysis approach to modeling building was implemented. First, a population PK model was developed, and then parameters were fixed to establish the PopPK/PD model. The nonlinear mixed effect modeling method was used to establish the PopPK/PD model. Model selection criteria were based on goodness-of-fit plots, objective function value (OFV, equal to −2 log-likelihood), Akaike information criteria (AIC), and precision of parameter estimates.
A total of 560 plasma concentrations of cetagliptin from 32 patients with T2DM were used for PopPK analysis. The structural model was tested using either one- or two-compartment PK models. […]
The additive error model (Equation 2), proportional error model (Equation 3), and additive and proportional error model (Equation 4) were evaluated to describe the residual variability: […]
Goodness-of-fit plots were assessed to describe the adequacy of the final PopPK/PD model, including observations vs. population predictions, observations vs. individual predictions, conditional weighted residuals (CWRES) vs. population predictions, and CWRES vs. time., A bootstrap resampling procedure was performed to assess the stability of the final PopPK/PD model. […]

[2] = Safety and tolerability assessments (adverse events); format: in vivo, human; conditions: patients with T2DM
Protocol: Safety and tolerability were evaluated by monitoring adverse events (AEs), laboratory tests (including blood routine, urine routine, stool routine, blood biochemical test and coagulation function), vital signs, physical examination, 12-lead electrocardiogram and other indicators. AEs were monitored and collected throughout the study. Descriptive analysis of the type and intensity of AEs were conducted according to NCICTC AE5.0.

[3] = Preliminary efficacy evaluation (FPG, 2 h PPG, HbA1c, GA); format: in vivo, human; conditions: patients with T2DM
Protocol: Blood samples for determination of fasting plasma glucose (FPG) and 2 hour postprandial plasma glucose (2 h PPG) were collected on day -2, day 7 and day 14. Additionally, blood samples for determination of glycated Hemoglobin A1C (HbA1c) and glycated Albumin (GA) were collected on day -2 and day 14. The changes of the above indexes relative to pre-treatment baseline (day -2) were evaluated and compared to investigate the preliminary efficacy of investigational product.

serum DPP-4 activity = test system: serum DPP-4 activity; design: method as in PMID 22686547; conditions: Zucker Diabetic Fatty rats; preclinical studies (data not published); cited from earlier work
plasma DPP-4 activity [4] = target: T1, plasma DPP-4 activity (Homo sapiens, UniProt P27487); test: Emax model of plasma concentration vs DPP-4 inhibition; format: in vivo; conditions: patients with T2DM
T1 construct: The plasma DPP-4 activity was determined using a fluorescent method with the substrate Gly-Pro-7-amide-4-methylcoumarin; from tissue; host or cells: human plasma (K2-EDTA blood from T2DM patients)

DPP-4 activity = conditions: healthy subjects; once-daily oral dose of ≧50 mg, multiple doses; cited from earlier work
plasma DPP-4 activity [5] = target: T1, plasma DPP-4 activity; test: Plasma DPP-4 inhibition relative to baseline (fluorescent method, Gly-Pro-7-amide-4-methylcoumarin); format: in vivo; conditions: patients with T2DM; for DPP-4 inhibition TRmax,ss / DPP-4 inhibition TRmax: median (range)
Protocol: Blood samples for DPP-4 activity determination were collected at the same time points as for PK. 1 mL blood samples were collected into blood-collecting tubes containing K2-EDTA. The tubes were placed on ice until centrifugation. The blood samples were centrifuged at 2-8°C, 1500 g for 10 min within 1 hour after blood collection. After centrifugation, the supernatant were evenly divided into two aliquots and stored at -80 ± 10°C. The plasma DPP-4 activity was determined using a fluorescent method with the substrate Gly-Pro-7-amide-4-methylcoumarin. A range of 3-400 µM was covered by the linear calibration.
The degree of inhibition of DPP-4 enzyme activity relative to baseline (DPP-4 inhibition, %) after administration was calculated as the following equation:
DPP−4 inhibition (%)=(1−DPP−4 activity/DPP−4 activity,Baseline)×100

[6] = cetagliptin group (50 or 100 mg, n=20) / sitagliptin group (100 mg, n=8), 14 days

T1 sequence (P27487 39-766 limits assumed): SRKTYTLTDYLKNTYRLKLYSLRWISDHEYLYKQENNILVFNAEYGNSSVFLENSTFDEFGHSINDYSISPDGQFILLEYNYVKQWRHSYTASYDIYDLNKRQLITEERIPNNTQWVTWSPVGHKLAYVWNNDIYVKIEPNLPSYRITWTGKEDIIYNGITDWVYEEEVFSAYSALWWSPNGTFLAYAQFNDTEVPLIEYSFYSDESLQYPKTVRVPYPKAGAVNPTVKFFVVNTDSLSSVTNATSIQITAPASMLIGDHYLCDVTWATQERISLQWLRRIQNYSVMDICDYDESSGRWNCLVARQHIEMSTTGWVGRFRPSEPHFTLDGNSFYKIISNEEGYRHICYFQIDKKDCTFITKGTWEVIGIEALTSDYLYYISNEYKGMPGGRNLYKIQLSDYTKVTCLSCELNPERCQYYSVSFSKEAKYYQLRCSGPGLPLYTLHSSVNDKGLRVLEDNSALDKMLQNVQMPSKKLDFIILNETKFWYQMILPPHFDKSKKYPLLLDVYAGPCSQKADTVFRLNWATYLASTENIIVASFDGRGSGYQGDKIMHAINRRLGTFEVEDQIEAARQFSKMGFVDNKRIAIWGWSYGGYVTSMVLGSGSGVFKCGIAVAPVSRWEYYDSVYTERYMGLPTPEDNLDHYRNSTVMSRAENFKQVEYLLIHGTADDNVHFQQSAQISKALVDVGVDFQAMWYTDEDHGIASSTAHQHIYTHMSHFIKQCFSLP

SMILES: C[C@@H]1c2cnc(C(F)(F)F)n2CCN1C(=O)C[C@H](N)Cc1cc(F)c(F)cc1F.O=P(O)(O)O [Cetagliptin, cetagliptin]
- tvCl2 (typical value of intercompartment clearance) [1]: 9.671 L/h
- tvV (typical value of volume of central compartment distribution) [1]: 8.668 L
- intensity of drug-related adverse events ([2]; cetagliptin 50 or 100 mg, sitagliptin 100 mg, 14 days): mild
- number of drug-related AEs [2, 6]: 3 AEs
- number of subjects reporting drug-related AEs [2, 6]: 2 subjects
- serious AEs or withdrawals due to AEs ([2]; once daily for 14 days): no serious AEs or withdraws due to AEs
- change of FPG relative to baseline (day -2) ([3]; 50 mg once daily, day 7): 0.49 mmol/L
- mean change value of 2h postprandial blood glucose concentration compared with baseline ([3]; 50 mg once daily, day 7, 2 h after breakfast): -1.54 ± 2.25 mmol/L
- mean change value of 2h postprandial blood glucose concentration compared with baseline ([3]; 50 mg once daily, day 7, 2 h after lunch): -0.29 ± 2.34 mmol/L
- mean change value of 2h postprandial blood glucose concentration compared with baseline ([3]; 50 mg once daily, day 7, 2 h after supper): -1.30 ± 2.50 mmol/L
- change of FPG relative to baseline (day -2) ([3]; 50 mg once daily, day 14): 0.56 mmol/L
- change of GA relative to baseline (day -2) ([3]; 50 mg once daily, day 14): 0.53%
- decrease of HbA1c compared with baseline ([3]; 50 mg once daily, day 14): 0.47%
- mean change value of 2h postprandial blood glucose concentration compared with baseline ([3]; 50 mg once daily, day 14, 2 h after lunch): -0.66 ± 2.26 mmol/L
- mean change value of 2h postprandial blood glucose concentration compared with baseline ([3]; 50 mg once daily, day 14, 2 h after supper): -2.64 ± 2.07 mmol/L
- decrease of 2 h PPG compared with baseline ([3]; 50 mg once daily, day 14 after dinner): 2.64 mmol/L
- change of FPG relative to baseline (day -2) ([3]; 100 mg once daily, day 7): -0.11 mmol/L
- mean change value of 2h postprandial blood glucose concentration compared with baseline ([3]; 100 mg once daily, day 7, 2 h after breakfast): -0.54 ± 2.47 mmol/L
- mean change value of 2h postprandial blood glucose concentration compared with baseline ([3]; 100 mg once daily, day 7, 2 h after lunch): -0.61 ± 2.16 mmol/L
- mean change value of 2h postprandial blood glucose concentration compared with baseline ([3]; 100 mg once daily, day 7, 2 h after supper): 1.64 ± 3.22 mmol/L
- change of FPG relative to baseline (day -2) ([3]; 100 mg once daily, day 14): 0.43 mmol/L
- change of GA relative to baseline (day -2) ([3]; 100 mg once daily, day 14): -1.70%
- decrease of HbA1c compared with baseline ([3]; 100 mg once daily, day 14): 0.35%
- mean change value of 2h postprandial blood glucose concentration compared with baseline ([3]; 100 mg once daily, day 14, 2 h after lunch): 1.16 ± 2.05 mmol/L
- mean change value of 2h postprandial blood glucose concentration compared with baseline ([3]; 100 mg once daily, day 14, 2 h after supper): 2.56 ± 2.48 mmol/L
- inhibition of serum DPP-4 activity (serum DPP-4 activity): ≥ 80%
- EC50 (plasma concentration producing half the maximum DPP-4 inhibition) (plasma DPP-4 activity [4]; Emax model): 5.37 ng/mL
- Emax (maximum DPP-4 inhibition, Emax model) (plasma DPP-4 activity [4]; plasma concentration vs DPP-4 inhibition): 92.47%
- sustained DPP-4 inhibition (DPP-4 activity): ≥ 80%
- accumulation ratio of AUEC0-24h of DPP-4 inhibition (plasma DPP-4 activity [5]; 50 mg once daily): ~1
- DPP-4 inhibition AUEC0-24h (plasma DPP-4 activity [5]; 50 mg oral once daily, day 14): 2010 ± 54.1 h*%
- DPP-4 inhibition Rmax,ss (plasma DPP-4 activity [5]; 50 mg oral once daily, day 14): 89.47 ± 1.12%
- DPP-4 inhibition Rmin,ss (plasma DPP-4 activity [5]; 50 mg oral once daily, day 14): 77.24 ± 4.52%
- DUR80% (duration for DPP-4 inhibition rate of >80%) (plasma DPP-4 activity [5]; 50 mg oral once daily, day 14): 21.9 ± 7.05 h
- E24h (DPP-4 inhibition at 24 h postdose) (plasma DPP-4 activity [5]; 50 mg oral once daily, day 14): 78.43 ± 3.85%
- DUR80% (duration for DPP-4 inhibition rate of >80%) (plasma DPP-4 activity [5]; 50 mg oral once daily, day 14, listed as cetagliptin): 21.9 h
- DPP-4 inhibition TRmax,ss (plasma DPP-4 activity [5]; 50 mg oral once daily, day 14): 2.00 (0.500-6.00) h
- DPP-4 inhibition AUEC0-24h (plasma DPP-4 activity [5]; 50 mg oral, day 1): 1820 ± 77.9 h*%
- DPP-4 inhibition Rmax (plasma DPP-4 activity [5]; 50 mg oral, day 1): 86.39 ± 1.75%
- DUR80% (duration for DPP-4 inhibition rate of >80%) (plasma DPP-4 activity [5]; 50 mg oral, day 1): 8.39 ± 2.37 h
- E24h (DPP-4 inhibition at 24 h postdose) (plasma DPP-4 activity [5]; 50 mg oral, day 1): 68.75 ± 4.75%
- DUR80% (duration for DPP-4 inhibition rate of >80%) (plasma DPP-4 activity [5]; 50 mg oral, day 1, listed as cetagliptin): 8.39 h
- DPP-4 inhibition TRmax (plasma DPP-4 activity [5]; 50 mg oral, day 1): 2.00 (0.500-3.00) h
- sustained DPP-4 inhibition (≥80%) compared with sitagliptin (plasma DPP-4 activity [5]; 100 mg cetagliptin vs 100 mg sitagliptin, multiple administration): much longer
- accumulation ratio of AUEC0-24h of DPP-4 inhibition (plasma DPP-4 activity [5]; 100 mg once daily): ~1
- DPP-4 inhibition AUEC0-24h (plasma DPP-4 activity [5]; 100 mg oral once daily, day 14): 2090 ± 24.4 h*%
- DPP-4 inhibition Rmax,ss (plasma DPP-4 activity [5]; 100 mg oral once daily, day 14): 89.99 ± 0.91%
- DPP-4 inhibition Rmin,ss (plasma DPP-4 activity [5]; 100 mg oral once daily, day 14): 84.28 ± 1.61%
- DUR80% (duration for DPP-4 inhibition rate of >80%) (plasma DPP-4 activity [5]; 100 mg oral once daily, day 14): 32.3 ± 4.53 h
- E24h (DPP-4 inhibition at 24 h postdose) (plasma DPP-4 activity [5]; 100 mg oral once daily, day 14): 83.91 ± 1.39%
- DUR80% (duration for DPP-4 inhibition rate of >80%) (plasma DPP-4 activity [5]; 100 mg oral once daily, day 14, listed as cetagliptin): 32.3 h
- DPP-4 inhibition TRmax,ss (plasma DPP-4 activity [5]; 100 mg oral once daily, day 14): 2.00 (1.00-3.00) h
- DPP-4 inhibition AUEC0-24h (plasma DPP-4 activity [5]; 100 mg oral, day 1): 2000 ± 41.6 h*%
- DPP-4 inhibition Rmax (plasma DPP-4 activity [5]; 100 mg oral, day 1): 88.78 ± 1.04%
- DUR80% (duration for DPP-4 inhibition rate of >80%) (plasma DPP-4 activity [5]; 100 mg oral, day 1): 21.1 ± 3.42 h
- E24h (DPP-4 inhibition at 24 h postdose) (plasma DPP-4 activity [5]; 100 mg oral, day 1): 79.75 ± 2.63%
- DUR80% (duration for DPP-4 inhibition rate of >80%) (plasma DPP-4 activity [5]; 100 mg oral, day 1, listed as cetagliptin): 21.1 h
- DPP-4 inhibition TRmax (plasma DPP-4 activity [5]; 100 mg oral, day 1): 1.00 (1.00-3.00) h
